Patent publication US11311513B2, “Methods, agents, and compositions for the treatment of acute myeloid leukemia” (UNIVERSITY OF CINCINNATI, priority 2017, dated 2022)
“And” between values parts separate entries of the source, which are not always exact repeats. Equal entries are not always repeated. Where two headings read alike, the source gives them in different places.

What was measured:
[1] = system: 5hmC peak enrichment in the whole genome; assay: Genome-wide 5hmC-seq in ML-2 AML cells; format: cell-based, human
Description: FIG. 12. […] 5hmC peak counts at different IDR cutoffs were shown. (b) Read density across 5hmC enriched regions. A unified catalog of 5hmC enriched regions was generated. Shown are heatmaps rank-ordered by reads per kilobase of exon model per million mapped reads (RPKM) of 5hmC-Seal samples minus that of the input samples. (c) Read density across all RefSeq genes. Shown are heatmaps of 5hmC read density changes across all RefSeq gene loci and 5 kb flanking regions (minus input values).
100 ng genomic DNA extracted from ML-2 cell were fragmented in 50 jiL Tagmentation buffer at 55° C. Fragmented DNA was purified by Zymo DNA clean&concentrator Kit (Zymo Research, Tustin, Calif.). Then, the selective 5hmC chemical labeling was performed in 25 jiL glucosylation buffer (50 mM HEPES buffer pH 8.0, 25 mM MgCl2) containing above fragmented DNA, 100 μM N3-UDP-Glc, 1 μM β-GT, and incubated at 37° C. for 2 hr. […] The libraries were quantified by a Qubit fluorometer (Life Technologies) and sequenced on an Illumina HiSEQ4000 sequencer with paired-end 50-bp reads.
The gene network was analyzed with Ingenuity Pathway Analysis (Qiagen). […] For 5hmC sequencing analysis, illumina sequencing reads were mapped to UCSC hg19 human reference genome using bowtie program. Only uniquely mapped reads were retained for the following data analysis. […]

[2] = Maximum tolerated dose and median lethal dose; format: in vivo
AE9a-AML = assay: AML-ETO9a (AE9a) AML secondary BMT mouse model; format: in vivo, mice; conditions: for median survival: 2.5 mg/kg i.p. once per day for 10 days, control 46 days
Description: FIG. 2. […] The secondary BMT recipient mice were transplanted with leukemic BM blast cells collected from primary MLL-AF9 AML mice. […] Kaplan-Meier curves are shown. The P values were determined by log-rank test. (b) Wright-Giemsa staining of mouse peripheral blood (PB) and BM, or hematoxylin and eosin (H&E) staining of mouse spleen and liver of the treated or control leukemic mice. (c,d) Tet1/2/3 gene expression levels (c) or Tet1 protein level (d) in BM blast cells of the treated or control leukemic mice. *, P<0.05, two-tailed t-test. Error bar indicates SD of triplicate experiments. […] The secondary BMT recipient mice were transplanted with leukemic BM blast cells collected from the primary AE9a-AML mice. […] Kaplan-Meier curves are shown. The P values were determined by log-rank test.
(§1) Secondary mouse BMT was carried out as described previously. […] For the “5+3” treatment, AraC (Cytarabine, Bedford Laboratories) and DNR (Daunorubicin, Sigma-Aldrich) were reconstituted with PBS, filtered, and stored in aliquots at −20° C. The “5+3” therapy regimen consists of five consecutive daily doses of 50 mg/kg AraC along with 3 mg/kg DNR daily during the first three days of treatment. Drugs were delivered by tail vein and intraperitoneal injection. Weights were taken daily during treatment and doses were recalculated to ensure the mice received a consistent dose of 50 mg/kg AraC and 3 mg/kg DNR every treatment.

FLT3-ITD/NPM1^mut AML = assay: FLT3-ITD/NPM1mut AML secondary BMT mouse model; format: in vivo, mice; conditions: 2.5 mg/kg i.p. once per day for 10 days; for median survival: control 21 days
Description: FIG. 4. […] (a) Structures of NSC-370284 and UC-514321. […] Cells were treated with drugs at indicated doses. Cell viability was detected by MTS 48 hrs post-treatment. Error bar indicates SD of triplicate experiments. […] Secondary BMT recipient mice were transplanted with primary leukemic BM cells with MLL-AF9 (f) or AML-ETO9a (g). […] Kaplan-Meier curves are shown. The P values were determined by log-rank test. […] Secondary BMT recipient mice were transplanted with primary leukemic BM cells with MLL-AF10 or FLT3-ITD/NPM1^mut. […] Kaplan-Meier curves are shown. The P values were determined by log-rank test. (j) Wright-Giemsa staining of mouse PB and BM, or H&E staining of mouse spleen and liver of MLL-AF9 AML secondary BMT recipients with or without drug treatment.
as §1

MONOMAC-6 cells = assay: MTS cell viability, MONOMAC-6; format: cell-based; conditions: 48 hrs
Description: In order to identify chemical compounds that may target TET1 signaling, the drug-sensitivity/gene expression database of a total of 20,602 chemical compounds in the NCI-60 collection of cancer cell samples was searched.
All cell lines were authenticated through STR profiling yearly.
These experiments were conducted as described previously (Jiang, X., et al., Blockade of miR-150 Maturation by MLL-Fusion/MYC/LIN-28 Is Required for MLL-Associated Leukemia, Cancer Cell 22:524-35 (2012); Li, Z., et al., miR-196b directly targets both HOXA9/MEIS1 oncogenes and FAS tumour suppressor in MLL-rearranged leukaemia, Nat Commun 2:688 (2012)) with ApoLive-Glo Multiplex Assay Kit, or CellTiter 96 AQueous Non-Radioactive Cell Proliferation Assay Kit (Promega, Madison, Wis.).

COc1cc(C(c2cc3c(cc2O)OCO3)N2CCCC2)cc(OC)c1OC (stereo not drawn) [NSC-370284, 6-(1-Pyrrolidinyl(3,4,5-trimethoxyphenyl)methyl)-1,3-benzodioxol-5-ol]
reduction of 5hmC peak enrichment in the whole genome [1]: around 75%
LD50 ([2]; C57BL/6, mouse, in vivo, ip, C57BL/6, I.P., read-out: LD50): ~123 mg/kg
MTD ([2]; C57BL/6, mouse, in vivo, ip, mice, I.P., read-out: maximum tolerated dose): 65 to 85.6 mg/kg
Number of Death ([2]; I.P. 65 mg/kg, 10 exposed): 0
Number of Death ([2]; I.P. 85.6 mg/kg, 10 exposed): 1
Number of Death ([2]; I.P. 113.5 mg/kg, 10 exposed): 3
Number of Death ([2]; I.P. 150 mg/kg, 10 exposed): 6
Number of Death ([2]; I.P. 200 mg/kg, 10 exposed): 10
median survival (AE9a-AML): 122 days and 114 days
median survival (FLT3-ITD/NPM1^mut AML): 34 days
IC50 (MONOMAC-6 cells; Homo sapiens, MONO-MAC-6, MONOMAC-6 cells, unit inferred, read-out: IC50 MMC6): 0.385 nM

CC(C)(C)c1cc(C(c2cc3c(cc2O)OCO3)N2CCOCC2)cc(C(C)(C)C)c1O (stereo not drawn) [UC-514321, 6-{[4-Hydroxy-3,5-bis(2-methyl-2-propanyl)phenyl](4-morpholinyl)methyl}-1,3-benzodioxol-5-ol]
reduction of 5hmC peak enrichment in the whole genome [1]: around 75%
MTD ([2]; C57BL/6, mouse, in vivo, ip): 65 to 85.6 mg/kg
Number of Death ([2]; C57BL/6, mouse, in vivo, ip, 65 mg/kg): 0
Number of Death ([2]; C57BL/6, mouse, in vivo, ip, 85.6 mg/kg): 1
Number of Death ([2]; C57BL/6, mouse, in vivo, ip, 113.5 mg/kg): 2
Number of Death ([2]; C57BL/6, mouse, in vivo, ip, 150 mg/kg): 7
Number of Death ([2]; C57BL/6, mouse, in vivo, ip, 200 mg/kg): 10
LD50 ([2]; C57BL/6, mouse, in vivo, ip, LD50): ~123 mg/kg
median survival (AE9a-AML): 160 days
prolongation of median survival (AE9a-AML; versus control, 2.5 mg/kg i.p. 10 days): over 3 folds
recipients that developed full-blown AML within 50 days (FLT3-ITD/NPM1^mut AML): none
median survival (FLT3-ITD/NPM1^mut AML): > 50 days
MONOMAC-6 cell viability among 30 analogues (MONOMAC-6 cells; MTS): most significantly repressed
